{
  "source": "patent US10603701B2",
  "about": "“Bioremediation of 1,4-dioxane and chlorinated aliphatic hydrocarbons by propanotrophic bacteria” (New Jersey Institute of Technology, priority 2018, dated 2020)",
  "key": {"[1]": {"test_system": "Psuedonocardia dioxanivorans CB1190", "settings": "previous studies; cited from earlier work"}, "[2]": {"test_system": "Azoarcus sp. DD4", "experiment": "Inhibition of 1,1-DCE on dioxane degradation by DD4 resting cells", "type": "cell-based", "settings": "dioxane 20.9±0.3 mg/L and 1,1-DCE 5.0±0.4 mg/L, 24 hr", "procedure": "Inhibition of 1,1-DCE on dioxane degradation by Azoarcus sp. DD4. Though DD4 can degrade both dioxane and 1,1-DCE, the effect(s) of 1,1-DCE on dioxane biodegradation was investigated. DD4 cells were harvested at the exponential growth phase and washed by NMS medium three times. Three treatments were prepared with the resting cells by the exposure of dioxane (19.7±1.2 mg/L), 1,1-DCE (5.5±0.1 mg/L), and both dioxane (20.9±0.3 mg/L) and 1,1-DCE (5.0±0.4 mg/L). Concentrations of 1,1-DCE and dioxane were monitored using GC at selected time intervals over 24 hr. Abiotic controls were treated identically. All experiments were performed in duplicate vials. […] Thus, it is very plausible that DD4 can resume its capability of degrading dioxane once 1,1-DCE is depleted by DD4."}, "[3]": {"test_system": "Azoarcus sp. DD4", "experiment": "Biodegradation of concurrent dioxane and 1,1-DCE by DD4 in microcosms", "type": "cell-based", "settings": "for effect of presence on utilization of 1-propanol and proliferation of DD4: 1-propanol as primary substrate", "procedure": "Biodegradation of concurrent dioxane and 1,1-DCE by Azoarcus sp. DD4. To evaluate the performance of DD4 in removing dioxane and 1,1-DCE when both compounds are concurrently present, microcosms were prepared with DD4 inoculum in NMS medium and dosed with dioxane and 1,1-DCE. Two primary substrates were used, including propane and 1-propanol."}, "[4]": {"test_system": "Azoarcus sp. DD4", "experiment": "Propane and dioxane degradation by DD4 with or without ATU", "type": "cell-based", "settings": "propane as primary substrate; dioxane degradation thus prolonged", "procedure": "Allylthiourea (ATU) was reported to inhibit the particulate MOs involved in nitrification and alkane degradation in various bacteria. To exploit the effects ofprm-deletion on the propane and dioxane degradation and further to distinguish the soluble versus particulate MO category the DD4 dioxane degrader belongs to, the wild-type and prm-deleted DD4 strains were cultured with and without the presence of ATU using propane as a primary substrate to cometabolize dioxane. Duplicate abiotic controls were prepared in parallel. The propane and dioxane depletion were monitored over time by GC analysis. Now referring to FIGS. 11a and 11b, prmADBC is only partially correlated with the propane degradation but not associated with the dioxane cometabolism."}, "[5]": {"test_system": "Azoarcus sp. DD4", "settings": "propane as substrate", "procedure": "DD4's adaptability to pH, salinity and temperature. To identify its optimum growth conditions, DD4 was cultured with propane as the substrate under different pHs, temperatures, and salinities. The pHs of NMS medium were adjusted to 4.0, 5.0, 6.0, 7.0, 8.0, 9.0 and 10.0 with appropriate amount of 1 M HCl or 1 M NaOH. The NMS mediums were cultured under 10° C., 15° C., 20° C., 25° C., 30° C., 35° C., and 40° C. The salinities of NMS medium were adjusted to 0%, 0.5%, 1.0%, 1.5%, 2.0%, 2.5%, 3.0%, and 3.5% (w/v) with NaCl. 6 mL of propane (equivalent to 6% of the head space volume) was injected into the sealed bottles in all these assays. DD4 was inoculated at the initial concentration of 0.05 measured as OD600 and cultured under 30° C., 150 rpm for 72 h while shaking. The optical density (OD) values of bacterial suspensions were determined with spectrophotometer under 600 nm."}, "[6]": {"test_system": "Mycobacterium sp. DT1", "experiment": "Concurrent biodegradation of dioxane and TCE by DT1 in simulated microcosms", "type": "cell-based", "procedure": "Concurrent biodegradation of dioxane and TCE by Mycobacterium sp. DT1. To evaluate the performance of DT1 in the removal of dioxane and TCE when both compounds are concurrently present, simulated microcosms were prepared with DT1 inoculum in BSM medium and dosed with dioxane and TCE. Propane was used as the primary substrate. […] After a short lag time (1 d), all the substrates, i.e. propane, dioxane, and TCE, were degraded synchronically. At the end of day 2, the initial 71.1, 20.2, and 2.15 mg/L of propane, dioxane, and TCE were degraded to 25.8, 11.3, and 1.59 mg/L, respectively. TCE was degraded to below the MDL of the GC-FID methods employed (i.e., 0.01 mg/L), and 85% of dioxane was removed from the simulated microcosm after 4 days incubation."}, "[7]": {"test_system": "Azoarcus sp. DD4", "experiment": "Inhibition of dioxane, 1,1-DCE and propane degradation by acetylene (DD4 resting cells)", "type": "cell-based", "settings": "resting cells pre-incubated with acetylene 10% headspace volume, 20 minutes", "procedure": "Inhibition of dioxane, 1,1-DCE, and propane degradation by acetylene. Acetylene is an irreversible suicide substrate that inactivates bacterial monooxygenases (MOs). Prior S. and Dalton H, 1985. Acetylene as a suicide substrate and active site probe for methane monooxygenase from Methylococcus capsulatus (Bath). FEMS Microbiology Letters. 29, 105-109. […] After being washed with NMS three times, resting cells were pre-incubated with acetylene (10% headspace volume) for 20 minutes prior to the amendment of dioxane, 1,1-DCE, or propane. The effect of the inhibitor acetylene was studied by monitoring the depletion of dioxane, 1,1-DCE, and propane over time in the presence or absence of acetylene. Duplicate abiotic controls were prepared in parallel. The propane and dioxane depletion were monitored over time by GC analysis."}},
  "data": [
    {"compound": "C=C(Cl)Cl", "note": "[1,1-DCE, 1,1-dichloroethylene]", "values": [
      {"measurement": "effect of exposure on dioxane degradation by CB1190", "setting": "[1]", "result": "significantly prohibit"},
      {"measurement": "effect of presence on dioxane degradation by DD4 resting cells", "setting": "[2]", "result": "greatly inhibited"},
      {"measurement": "effect of presence on utilization of 1-propanol and proliferation of DD4", "setting": "[3]", "result": "did not inhibit"},
      {"measurement": "effect of presence on degradation of dioxane and consumption of propane for growth", "setting": "[3]; propane as primary substrate, NMS microcosm", "result": "significantly inhibited"}
    ]},
    {"compound": "C=CCNC(N)=S", "note": "[ATU, Allylthiourea]", "values": [
      {"measurement": "effect on propane consumption", "setting": "[4]", "result": "partially inhibit"}
    ]},
    {"compound": "[Cl-].[Na+]", "note": "[NaCl]", "values": [
      {"measurement": "optimal growth parameter, NaCl", "setting": "[5]; 72 h, OD600, w/v", "result": "0-1%"},
      {"measurement": "NaCl concentration under which DD4 could survive and maintain growth and cometabolic activity toward dioxane", "setting": "[5]; w/v", "result": "0.0-3.0%"}
    ]},
    {"compound": "ClC=C(Cl)Cl", "note": "[TCE, trichloroethene]", "values": [
      {"measurement": "effect of presence on degradation of dioxane or consumption of propane for growth", "setting": "[6]; DT1, BSM, propane as primary substrate", "result": "no significant inhibition"}
    ]},
    {"compound": "C#C", "note": "[acetylene]", "values": [
      {"measurement": "effect of exposure on degradation of propane, 1,1-DCE and dioxane", "setting": "[7]", "result": "completely prohibited"}
    ]},
    {"compound": "C1COCCO1", "note": "[dioxane, 1,4-dioxane]", "values": [
      {"measurement": "effect on 1,1-DCE degradation by DD4 resting cells", "setting": "[2]", "result": "no inhibitory effects"},
      {"measurement": "dioxane removed after 4 days incubation", "setting": "[6]; initial 20.2 mg/L", "result": 85, "unit": "%"},
      {"measurement": "effect of presence on utilization of 1-propanol and proliferation of DD4", "setting": "[3]", "result": "did not inhibit"}
    ]}
  ]
}
